This note sets out measurements from patent US12674038B2, “Composition and method for microbial control for use with polymers” (MICROBAN PRODUCTS COMPANY, priority 2022, dated 2026).

Some results are limits rather than exact numbers.

This assay has as its system Escherichia coli (gram-negative bacteria). Kind of assay: Antimicrobial efficacy of polymer samples against Escherichia coli, ISO22196 test method. The conditions noted are these: E. coli.

Consider `O=C(O)c1ccccc1` [GBA, benzoic acid], for which, where the note is “5250 ppm level in TPU”, the “log reduction (consistent antimicrobial efficacy)” value is greater than 1. For the same compound, the log reduction result (TPU, 4500 ppm GBA alone) is recorded as “less than 1”.
